Counter-ions that a name gives are not always drawn.

This note sets out measurements from patent US20250084074A1, “SUBSTITUTED HETEROCYCLES AS HSET INHIBITORS” (MERCK PATENT GMBH, priority 2022, published 2025).

Chain of HSET full length protein (Q9BW19 whole entry): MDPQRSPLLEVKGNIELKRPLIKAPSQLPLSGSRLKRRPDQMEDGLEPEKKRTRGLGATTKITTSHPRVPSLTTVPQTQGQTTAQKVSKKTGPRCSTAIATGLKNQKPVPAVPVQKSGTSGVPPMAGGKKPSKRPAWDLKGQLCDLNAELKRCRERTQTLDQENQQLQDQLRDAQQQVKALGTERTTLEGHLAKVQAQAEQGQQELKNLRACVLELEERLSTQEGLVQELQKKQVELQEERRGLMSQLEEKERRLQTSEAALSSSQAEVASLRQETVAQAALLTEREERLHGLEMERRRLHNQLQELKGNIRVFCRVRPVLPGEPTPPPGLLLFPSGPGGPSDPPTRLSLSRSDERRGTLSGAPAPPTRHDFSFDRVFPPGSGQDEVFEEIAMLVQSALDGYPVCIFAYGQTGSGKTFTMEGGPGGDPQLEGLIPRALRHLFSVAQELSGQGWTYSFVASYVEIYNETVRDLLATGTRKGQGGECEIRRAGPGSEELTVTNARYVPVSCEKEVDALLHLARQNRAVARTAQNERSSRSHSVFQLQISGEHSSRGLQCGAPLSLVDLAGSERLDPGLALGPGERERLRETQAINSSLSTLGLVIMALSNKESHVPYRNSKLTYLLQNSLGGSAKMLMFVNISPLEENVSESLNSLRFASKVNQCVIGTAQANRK

The assay addresses HSET full length protein (Homo sapiens (Human), UniProt Q9BW19). Put plainly: HSET ADP-Glo Assay S - 3 μM ATP. Type of assay: biochemical. The settings on record: 5 nM HSET, 70 μg/mL microtubule, 80 min at rt, read-out: COMBINED HSET ADP GLO IC50. The method, boiled down:
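Full-length human HSET (5 nM) with paclitaxel-stabilised bovine brain microtubules (70 μg/mL) in HEPES pH 6.8 buffer was preincubated 10 min with compound. ATP at 3 μM started the reaction, which ran 80 min at rt. ADP formed was measured by ADP-Glo luminescence.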
Regarding `Cc1nc(-c2ccc3ccnc(NCCC(=O)Nc4cc(C(=O)OC5CCCC5)n(C)n4)c3c2)no1` [Example 138, Cyclopentyl-1-methyl-3-(3-((7-(5-methyl-1,2,4-oxadiazol-3-yl)isoquinolin-1-yl)amino)propanamido)-1 H-pyrazole-5-carboxylate], the IC50 came out at 11 nM.

In the case of `CCOC(=O)c1sc(C(=O)NCCNC(=O)c2cccc(-c3noc(CC)n3)c2)nc1C` [Example 140, Ethyl-2-((2-(3-(5-ethyl-1,2,4-oxadiazol-3-yl)benzamido)ethyl)carbamoyl)-4-methylthiazole-5-carboxylate], the IC50 is 5040 nM.

For the molecule `CCOC(=O)c1sc(C(=O)NCCNC(=O)c2cccc(-c3noc(C)n3)c2)nc1C` [Example 141, Ethyl-4-methyl-2-((2-(3-(5-methyl-1,2,4-oxadiazol-3-yl)benzamido)ethyl)carbamoyl)thiazole-5-carboxylate], the IC50 turned out to be 405 nM. For the molecule `CCOC(=O)c1sc(NC(=O)C[C@@H](C)NC(=O)c2cccc(-c3noc(C)n3)c2)nc1C` [Example 142, Ethyl-(R)-4-methyl-2-(3-(3-(5-methyl-1,2,4-oxadiazol-3-yl)benzamido)butanamido)thiazole-5-carboxylate], the IC50 was 288 nM. Next, `CCOC(=O)c1sc(NC(=O)C[C@H](C)NC(=O)c2cccc(-c3noc(C)n3)c2)nc1C` [Example 143, Ethyl-(S)-4-methyl-2-(3-(3-(5-methyl-1,2,4-oxadiazol-3-yl)benzamido)butanamido)thiazole-5-carboxylate]: 61 nM; `CCCOC(=O)c1sc(NC(=O)CC2(NC(=O)c3cc(Cl)cc(-c4noc(C)n4)c3)CCN(C)CC2)nc1C` [Example 144, Propyl-2-(2-(4-(3-chloro-5-(5-methyl-1,2,4-oxadiazol-3-yl)benzamido)-1-methylpiperidin-4-yl)acetamido)-4-methylthiazole-5-carboxylate]: 9200 nM; `CCOC(=O)c1sc(NC(=O)C(C)CNC(=O)c2cccc(-c3noc(C)n3)c2)nc1C` (stereo not drawn) [Example 145, Ethyl-4-methyl-2-(2-methyl-3-(3-(5-methyl-1,2,4-oxadiazol-3-yl)benzamido)propanamido)thiazole-5-carboxylate]: 5480 nM. Next, `CCOC(=O)c1sc(NC(=O)CC(NC(=O)c2cccc(-c3noc(C)n3)c2)C2CCNCC2)nc1C` (stereo not drawn) [Example 146, 4-(3-((5-(ethoxycarbonyl)-4-methylthiazol-2-yl)amino)-1-(3-(5-methyl-1,2,4-oxadiazol-3-yl)benzamido)-3-oxopropyl)piperidin-1-ium formate]: 260 nM; `CCOC(=O)c1sc(NC(=O)CC(NC(=O)c2cccc(-c3noc(C)n3)c2)C2CCN(C)CC2)nc1C` (stereo not drawn) [Example 147, 4-(3-((5-(ethoxycarbonyl)-4-methylthiazol-2-yl)amino)-1-(3-(5-methyl-1,2,4-oxadiazol-3-yl)benzamido)-3-oxopropyl)-1-methylpiperidin-1-ium formate]: 291 nM; `CCOC(=O)c1sc(NC(=O)C[C@H](CN)NC(=O)c2cccc(-c3noc(C)n3)c2)nc1C` [Example 148, Ethyl-2-[[(3R)-4-amino-3-[[3-(5-methyl-1,2,4-oxadiazol-3-yl)benzoyl]amino]butanoyl]amino]-4-methyl-thiazole-5-carboxylate]: 133 nM. Next, `CCOC(=O)c1sc(NC(=O)[C@H]2CNC[C@@H]2NC(=O)c2cccc(-c3noc(C)n3)c2)nc1C` [Example 149, Ethyl-4-methyl-2-[[(3S,4R)-4-[[3-(5-methyl-1,2,4-oxadiazol-3-yl)benzoyl]amino]pyrrolidine-3-carbonyl]amino]thiazole-5-carboxylate; formic acid]: 2800 nM.

As to `CCOC(=O)c1sc(NC(=O)C[C@H](CCCN)NC(=O)c2cccc(-c3noc(C)n3)c2)nc1C` [Example 150, ethyl (S)-2-(6-amino-3-(3-(5-methyl-1,2,4-oxadiazol-3-yl)benzamido)hexanamido)-4-methylthiazole-5-carboxylate], the IC50 amounted to 57 nM. Next, `CCCOC(=O)c1sc(NC(=O)C[C@H](CCCN)NC(=O)c2cccc(-c3noc(C)n3)c2)nc1C` [Example 151, Popyl-(S)-2-(6-amino-3-(3-(5-methyl-1,2,4-oxadiazol-3-yl)benzamido)hexanamido)-4-methylthiazole-5-carboxylate]: 13 nM; `CCCOC(=O)c1sc(NC(=O)C[C@H](CCCNC)NC(=O)c2cccc(-c3noc(C)n3)c2)nc1C` [Example 152, Propyl 4-methyl-2-[[(3S)-6-(methylamino)-3-[[3-(5-methyl-1,2,4-oxadiazol-3-yl)benzoyl]amino]hexanoyl]amino]thiazole-5-carboxylate]: 19 nM; `CCCOC(=O)c1sc(NC(=O)C[C@@H](CCCNC)NC(=O)c2cccc(-c3noc(C)n3)c2)nc1C` [Example 153, Propyl-(R)-4-methyl-2-(3-(3-(5-methyl-1,2,4-oxadiazol-3-yl)benzamido)-6-(methylamino)hexanamido)thiazole-5-carboxylate]: 285 nM. Next, `CNCCC[C@@H](CC(=O)Nc1nc(C)c(C(=O)OC(C)(C)C)s1)NC(=O)c1cccc(-c2noc(C)n2)c1` [Example 154, Tert-butyl 4-methyl-2-[[(3S)-6-(methylamino)-3-[[3-(5-methyl-1,2,4-oxadiazol-3-yl)benzoyl]amino]hexanoyl]amino]thiazole-5-carboxylate]: 6 nM; `CNCCC[C@@H](CC(=O)Nc1nc(C)c(C(=O)OC2CCCC2)s1)NC(=O)c1cccc(-c2noc(C)n2)c1` [Example 155, Cyclopentyl (S)-4-methyl-2-(3-(3-(5-methyl-1,2,4-oxadiazol-3-yl)benzamido)-6-(methylamino)hexanamido)thiazole-5-carboxylate]: 11 nM; `CNCCC[C@@H](CC(=O)Nc1nc(C)c(C(=O)OC(C)C)s1)NC(=O)c1cccc(-c2noc(C)n2)c1` [Example 156, Isopropyl (S)-4-methyl-2-(3-(3-(5-methyl-1,2,4-oxadiazol-3-yl)benzamido)-6-(methylamino)hexanamido)thiazole-5-carboxylate]: 53 nM. Next, `CNCCC[C@@H](CC(=O)Nc1nc(C)c(C(C)(C)C)s1)NC(=O)c1cc(Cl)cc(-c2noc(C)n2)c1` [Example 157, (S)-N-(1-((5-(tert-butyl)-4-methylthiazol-2-yl)amino)-6-(methylamino)-1-oxohexan-3-yl)-3-chloro-5-(5-methyl-1,2,4-oxadiazol-3-yl)benzamide]: 373 nM. For `CCCOC(=O)c1sc(NC(=O)C[C@H](CCCN(C)C)NC(=O)c2cccc(-c3noc(C)n3)c2)nc1C` [Example 158, Propyl (S)-2-(6-(dimethylamino)-3-(3-(5-methyl-1,2,4-oxadiazol-3-yl)benzamido)hexanamido)-4-methylthiazole-5-carboxylate], the IC50 is 11 nM.

For `CCCOC(=O)c1sc(NC(=O)C[C@H](CCCN2CCOCC2)NC(=O)c2cccc(-c3noc(C)n3)c2)nc1C` [Example 159, Propyl (S)-4-methyl-2-(3-(3-(5-methyl-1,2,4-oxadiazol-3-yl)benzamido)-6-morpholinohexanamido)thiazole-5-carboxylate], the IC50 was 21 nM.
